Experiments:
[1] = target: human adenosine A2A receptor (Homo sapiens (Human), UniProt P29274); test: Adenosine receptor binding assay, A2A ([3H]ZM241385 inhibition binding on HEK293 membranes); settings: 1 nM [3H]ZM241385, 25° C., 1 h; Ki from IC50 by Cheng-Prusoff
Protocol: (§1) Inhibition binding assays were performed using 0.2 μg of membranes prepared from HEK293 cells infected with BacMam human adenosine A2A receptor or 1.4 μg of membranes prepared from HEK293 cells infected with BacMam human adenosine A1 receptor. Membranes were incubated in 50 mM Tris-HCl (HEK293-hA2A; pH 7.4) or 50 mM Tris-HCl, 100 mM NaCl, 10 mM MgCl2 (CHO-hA1; pH 7.4) in the presence of varying concentrations of test compound and 1 nM [^3H]ZM241385 (HEK293-hA2A) or [^3H]DPCPX (CHO-hA1) at 25° C. for 1 h. The assay was then terminated by rapid filtration onto GF/B grade Unifilter plates using a TomTec cell harvester, followed by 5×0.5 ml washes with ddH2O. Nonspecific binding was defined in the presence of 1 μM CGS15943 (HEK293-hA2A) or 1 μM DPCPX (CHO-hA1). Bound radioactivity was determined by liquid scintillation counting and inhibition curves were analysed using a four-parameter logistic equation. IC50 values were converted to Ki values with the Cheng-Prusoff equation using a KD value derived from saturation binding studies.

[2] = target: human adenosine A1 receptor (Homo sapiens (Human), UniProt P30542); test: Adenosine receptor binding assay, A1 ([3H]DPCPX inhibition binding on membranes); settings: 1 nM [3H]DPCPX, 25° C., 1 h; Ki from IC50 by Cheng-Prusoff
Chain of human adenosine A1 receptor (P30542 whole entry): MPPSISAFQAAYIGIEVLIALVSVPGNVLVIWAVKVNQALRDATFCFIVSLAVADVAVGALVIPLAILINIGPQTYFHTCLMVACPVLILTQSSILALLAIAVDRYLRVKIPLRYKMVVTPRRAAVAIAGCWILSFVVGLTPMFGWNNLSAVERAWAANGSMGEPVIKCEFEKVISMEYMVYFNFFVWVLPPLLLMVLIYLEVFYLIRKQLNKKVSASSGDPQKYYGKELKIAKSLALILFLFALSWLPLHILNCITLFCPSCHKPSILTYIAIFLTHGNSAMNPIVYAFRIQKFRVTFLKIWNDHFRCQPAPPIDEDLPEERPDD
Protocol: as §1

[3] = target: human CB-1 cannabinoid receptor (Homo sapiens (Human), UniProt P21554); test: CB-1 receptor radioligand binding assay ([3H]CP 55940, transfected CHO cell membranes); settings: 0.5 nM [3H]CP 55940, 120 min at 37° C., agonist site
Chain of human CB-1 cannabinoid receptor (P21554 whole entry): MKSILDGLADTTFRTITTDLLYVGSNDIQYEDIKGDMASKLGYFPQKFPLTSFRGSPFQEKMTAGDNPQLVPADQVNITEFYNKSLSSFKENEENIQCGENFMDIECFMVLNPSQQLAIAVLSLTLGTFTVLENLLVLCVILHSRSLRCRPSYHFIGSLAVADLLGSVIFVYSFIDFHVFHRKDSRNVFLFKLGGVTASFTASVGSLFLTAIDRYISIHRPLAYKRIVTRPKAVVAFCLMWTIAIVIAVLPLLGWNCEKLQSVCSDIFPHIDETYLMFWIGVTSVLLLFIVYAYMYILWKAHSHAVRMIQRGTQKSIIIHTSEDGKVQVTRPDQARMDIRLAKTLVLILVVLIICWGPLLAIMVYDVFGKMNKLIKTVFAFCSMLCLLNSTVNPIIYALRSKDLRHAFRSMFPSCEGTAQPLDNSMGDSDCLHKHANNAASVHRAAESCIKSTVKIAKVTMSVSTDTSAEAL
Protocol: Nonspecific binding is determined in the presence of 10 μM WIN 55212-2.
Following incubation, the samples are filtered rapidly under vacuum through glass fiber filters (GF/B, Packard) presoaked with 0.3% PEI and rinsed several times with an ice-cold buffer containing 50 mM Tris-HCl (pH 7.4) and 0.5% BSA using a 96-sample cell harvester (Unifilter, Packard). The filters are dried then counted for radioactivity in a scintillation counter (Topcount, Packard) using a scintillation cocktail (Microscint O, Packard).
The standard reference compound is CP 55940 which is tested in each experiment at several concentrations to obtain a competition curve from which its IC50 is calculated.
In Table 5, blank entries for Ki indicate that the observed binding was too weak to measure a Ki value.

[4] = target: human CB1 receptor (Homo sapiens (Human), UniProt P21554); test: CB1 receptor antagonism, agonist-induced cAMP modulation (HTRF) in transfected CHO cells; assay type: cell-based; settings: inhibition of control response to 3 nM CP 55940, cAMP HTRF, read-out: Antag IC50
Chain of human CB1 receptor (P21554 whole entry): as above
Protocol: Receptor antagonism: Evaluation of the antagonist activity of compounds at the human CB1 receptor expressed in transfected CHO cells, determined by measuring their effects on agonist-induced cAMP modulation using the HTRF detection method.
The cells are suspended in HBSS buffer (Invitrogen) complemented with 20 mM HEPES (pH 7.4), then distributed in microplates at a density of 5.10^3 cells/well and preincubated for 5 min at room temperature in the presence of either of the following: HBSS (stimulated control), the reference antagonist AM 281 at 3 μM (basal control) or various concentrations (IC50 determination), or the test compounds.
Thereafter, the reference agonist CP 55940 and the adenylyl cyclase activator NKH 477 are added at respective final concentrations of 3 nM and 3 μM.
For basal control measurements, CP 55940 is omitted from the wells containing 3 μM AM 281.
Following 20 min incubation at 37° C., the cells are lysed and the fluorescence acceptor (D2-labeled cAMP) and fluorescence donor (anti-cAMP antibody labeled with europium cryptate) are added.
After 60 min at room temperature, the fluorescence transfer is measured at λex=337 nm and λem=620 and 665 nm using a microplate reader (Rubystar, BMG). The cAMP concentration is determined by dividing the signal measured at 665 nm by that measured at 620 nm (ratio).
The results are expressed as a percent inhibition of the control response to 3 nM CP 55940.
The standard reference antagonist is AM 281, which is tested in each experiment at several concentrations to generate a concentration-response curve from which its IC50 value is calculated.

Chain of human adenosine A2A receptor (P29274 whole entry): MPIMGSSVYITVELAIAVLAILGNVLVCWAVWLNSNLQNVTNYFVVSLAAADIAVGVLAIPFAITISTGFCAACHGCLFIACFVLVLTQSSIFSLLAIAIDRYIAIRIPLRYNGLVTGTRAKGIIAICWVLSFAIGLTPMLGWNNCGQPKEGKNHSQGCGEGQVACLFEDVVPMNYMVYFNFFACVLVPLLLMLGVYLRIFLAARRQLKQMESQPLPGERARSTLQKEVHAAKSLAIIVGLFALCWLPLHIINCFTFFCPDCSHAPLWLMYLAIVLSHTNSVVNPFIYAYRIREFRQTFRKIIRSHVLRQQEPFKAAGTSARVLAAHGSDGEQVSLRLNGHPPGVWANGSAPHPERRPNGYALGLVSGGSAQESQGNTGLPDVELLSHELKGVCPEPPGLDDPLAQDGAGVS

SMILES	A2A pKi [1]	A1 pKi [2]	Ki [3]	IC50 [4]
C[C@@H]1CN(c2c(-c3ccccc3)nc(N)n3c(=O)n(Cc4cccnn4)nc23)C[C@H](C)O1 [Example 1-16, 5-amino-8-[(cis)-2,6-dimethylmorpholin-4-yl]-7-phenyl-2-(pyridazin-3-ylmethyl)-[1,2,4]triazolo[4,3-c]pyrimidin-3-one]	7.2	6.1		
Cc1ocnc1Cn1nc2c(-c3cc(Cl)c4[nH]ncc4c3)c(-c3ccccc3)nc(N)n2c1=O [Example 4-11, 5-amino-8-(7-chloro-1H-indazol-5-yl)-2-[(5-methyloxazol-4-yl)methyl]-7-phenyl-[1,2,4]triazolo[4,3-c]pyrimidin-3-one]	9.8	8.7	2.5 µM	2.6 µM
C[C@@H]1CN(c2c(-c3ccccc3)nc(N)n3c(=O)n(C[C@H]4COCCN4C)nc23)C[C@H](C)O1 [Example 1-12, 5-amino-8-[(cis)-2,6-dimethylmorpholin-4-yl]-2-[[(3S)-4-methylmorpholin-3-yl]methyl]-7-phenyl-[1,2,4]triazolo[4,3-c]pyrimidin-3-one]	6.9	<5.4		
C[C@@H]1CN(c2c(-c3ccccc3)nc(N)n3c(=O)n(CCC(F)F)nc23)C[C@H](C)O1 [Example 1-3, 5-amino-2-(3,3-difluoropropyl)-8-[(cis)-2,6-dimethylmorpholin-4-yl]-7-phenyl-[1,2,4]triazolo[4,3-c]pyrimidin-3-one]	7.1	<5.4		
CCCn1nc2c(N3C[C@@H](C)O[C@@H](C)C3)c(-c3ccc(F)cc3)nc(N)n2c1=O [Example 1-6, 5-amino-8-[(cis)-2,6-dimethylmorpholin-4-yl]-7-(4-fluorophenyl)-2-propyl-[1,2,4]triazolo[4,3-c]pyrimidin-3-one]	6.9	6.4		
Cc1ocnc1Cn1nc2c(-c3cc(C)c4[nH]ncc4c3)c(-c3ccc(F)cc3)nc(N)n2c1=O [Example 4-8, 5-amino-7-(4-fluorophenyl)-8-(7-methyl-1H-indazol-5-yl)-2-[(5-methyloxazol-4-yl)methyl]-[1,2,4]triazolo[4,3-c]pyrimidin-3-one]	9.6	8.4		
C[C@@H]1CN(c2c(-c3ccccc3)nc(N)n3c(=O)n(C[C@@H]4COCCN4)nc23)C[C@H](C)O1 [Example 1-11, 5-amino-8-[(cis)-2,6-dimethylmorpholin-4-yl]-2-[[(3R)-morpholin-3-yl]methyl]-7-phenyl-[1,2,4]triazolo[4,3-c]pyrimidin-3-one]	6.7	<5.6		
COc1ncccc1Cn1nc2c(N3C[C@@H](C)O[C@@H](C)C3)c(-c3ccccc3)nc(N)n2c1=O [Example 1-15, 5-amino-8-[(cis)-2,6-dimethylmorpholin-4-yl]-2-[(2-methoxy-3-pyridyl)methyl]-7-phenyl-[1,2,4]triazolo[4,3-c]pyrimidin-3-one]	8.4	6.4		
[2H]c1c([2H])c([2H])c(-c2nc(N)n3c(=O)n(Cc4ncoc4C)nc3c2-c2cc(C)c3[nH]ncc3c2)c([2H])c1[2H] [Example 4-10, 5-amino-8-(7-methyl-1H-indazol-5-yl)-2-[(5-methyloxazol-4-yl)methyl]-7-(2,3,4,5,6-pentadeuteriophenyl)-[1,2,4]triazolo[4,3-c]pyrimidin-3-one]	10.0	8.7		
Cc1cc(-c2c(-c3ccccc3)nc(N)n3c(=O)n(Cc4ccc(F)cn4)nc23)cc(C)c1O [Example 3-1, 5-amino-2-[(5-fluoro-2-pyridyl)methyl]-8-(4-hydroxy-3,5-dimethyl-phenyl)-7-phenyl-[1,2,4]triazolo[4,3-c]pyrimidin-3-one]				> 100 µM
C[C@@H]1CN(c2c(-c3ccccc3)nc(N)n3c(=O)n(CCc4ccccc4)nc23)C[C@H](C)O1 [Example 1-17, 5-amino-8-[(cis)-2,6-dimethylmorpholin-4-yl]-7-phenyl-2-(2-phenylethyl)-[1,2,4]triazolo[4,3-c]pyrimidin-3-one]	7.2	<5.8		
C[C@@H]1CN(c2c(-c3ccccc3)nc(N)n3c(=O)n(CCN4CCCCC4)nc23)C[C@H](C)O1 [Example 1-9, 5-amino-8-[(cis)-2,6-dimethylmorpholin-4-yl]-7-phenyl-2-[2-(1-piperidyl)ethyl]-[1,2,4]triazolo[4,3-c]pyrimidin-3-one]	6.7	<5.5		
C[C@@H]1CN(c2c(-c3ccccc3)nc(N)n3c(=O)n(C[C@H]4COCCN4)nc23)C[C@H](C)O1 [Example 1-10, 5-amino-8-[(cis)-2,6-dimethylmorpholin-4-yl]-2-[[(3S)-morpholin-3-yl]methyl]-7-phenyl-[1,2,4]triazolo[4,3-c]pyrimidin-3-one]	6.9	<5.4		
C[C@@H]1CN(c2c(-c3ccccc3)nc(N)n3c(=O)n(C[C@@H]4COCCN4C)nc23)C[C@H](C)O1 [Example 1-13, 5-amino-8-[(cis)-2,6-dimethylmorpholin-4-yl]-2-[[(3R)-4-methylmorpholin-3-yl]methyl]-7-phenyl-[1,2,4]triazolo[4,3-c]pyrimidin-3-one]	7.1	<5.4		
Cc1ccc(Cn2nc3c(-c4cc(C)c5ncoc5c4)c(-c4ccc(F)cc4)nc(N)n3c2=O)nc1 [Example 4-3, 5-amino-7-(4-fluorophenyl)-8-(4-methyl-1,3-benzoxazol-6-yl)-2-[(5-methyl-2-pyridyl)methyl]-[1,2,4]triazolo[4,3-c]pyrimidin-3-one]	9.8	6.9		
C[C@@H]1CN(c2c(-c3ccccc3)nc(N)n3c(=O)n(C[C@H]4CCCO4)nc23)C[C@H](C)O1 [Example 1-8, 5-amino-8-[(cis)-2,6-dimethylmorpholin-4-yl]-7-phenyl-2-[[(2R)-tetrahydrofuran-2-yl]methyl]-[1,2,4]triazolo[4,3-c]pyrimidin-3-one]				> 100 µM
Cc1ocnc1Cn1nc2c(-c3cc(C)c4ncoc4c3)c(-c3ccccc3)nc(N)n2c1=O [Example 4-6, 5-amino-8-(4-methyl-1,3-benzoxazol-6-yl)-2-[(5-methyloxazol-4-yl)methyl]-7-phenyl-[1,2,4]triazolo[4,3-c]pyrimidin-3-one]				17.9 µM
Cc1nc(Cn2nc3c(-c4cc(C)c5ncoc5c4)c(-c4ccc(F)cc4)nc(N)n3c2=O)c(C)o1 [Example 4-7, 5-amino-2-[(2,5-dimethyloxazol-4-yl)methyl]-7-(4-fluorophenyl)-8-(4-methyl-1,3-benzoxazol-6-yl)-[1,2,4]triazolo[4,3-c]pyrimidin-3-one]	9.9	7.7		
C[C@@H]1CC(c2c(-c3ccccc3)nc(N)n3c(=O)n(CCC(F)(F)F)nc23)C[C@H](C)O1 (stereo partly drawn) [Example 2-2, 5-amino-8-[(cis)-2,6-dimethyltetrahydropyran-4-yl]-7-phenyl-2-(3,3,3-trifluoropropyl)-[1,2,4]triazolo[4,3-c]pyrimidin-3-one]	7.4	<5.5		
C[C@@H]1CN(c2c(-c3ccc(F)cc3)nc(N)n3c(=O)n(CCC(F)(F)F)nc23)C[C@H](C)O1 [Example 1-5, 5-amino-8-[(cis)-2,6-dimethylmorpholin-4-yl]-7-(4-fluorophenyl)-2-(3,3,3-trifluoropropyl)-[1,2,4]triazolo[4,3-c]pyrimidin-3-one]	7.3	<5.5		
